“And” between values parts separate entries of the source, which are not always exact repeats. Equal entries are not always repeated. Non-standard residues stand in square brackets, D forms with d. Residues, ends and D or L forms follow the SMILES beside them. sY = N[C@@H](Cc1ccc(OS(=O)(=O)O)cc1)C(=O)O

This experiment deals with Male Sprague-Dawley rats. The class given is in vivo. The note with it: rat, intraperitoneal; for % FEEDING INHIBITION 0.5 hr (values marked *) / % FEEDING INHIBITION 0.5 hr / feeding inhibition during the 0.5 hour feeding period: 0.5 hr feeding period; for % FEEDING INHIBITION 0.5 hr / % FEEDING INHIBITION 3 hr: 30 μg/kg, vs saline controls; for % FEEDING INHIBITION 3 hr: IA means inactive; for feeding inhibition during the 0.5 hour feeding period: 0.3 μg/kg; for feeding inhibition during the 3 hour feeding period: 3 μg/kg. As to the method: The peptides of this invention have the ability to inhibit feeding activity in mammals. As a result they have utility in the prevention and treatment of obesity.
Male Sprague-Dawley rats (weighing 300-350 g) are individually caged and maintained on a 12 hr. light, dark cycle and trained for at least 14 days to feed during a three hr period of the dark cycle but not the 21 hours preceding that three hr period. The day of the study, rats are dosed intraperitoneally with saline (controls) or test compound (dissolved in saline; usually at a concentration of 0.3 to 300 micrograms of test compound per kg of rat weight). Food is introduced 10 minutes after administration of saline or test compound. […] The % feeding inhibition for the 1/2 hr and 3 hr feeding periods obtained by administering a dose of 30 μg/kg of test compound is given in Table 2 for CCK-8 and various compounds of the invention. For example, the % feeding inhibition obtained with CCK-8 (first line of Table 2) was 70% for the 1/2 hr feeding period and 25% for the 3-hour period.

Setting [1] is: 300 μg/kg, <10% inhibition at 30 μg/kg.

Consider `CNC(=O)[C@H](Cc1ccccc1)NC(=O)[C@H](CC(=O)O)NC(=O)[C@H](CCSC)NC(=O)[C@H](Cc1c[nH]c2ccccc12)NC(=O)CNC(=O)[C@H](CCSC)NC(=O)[C@H](Cc1ccc(OS(=O)(=O)O)cc1)NC(=O)[C@@H](N)CC(=O)O` [H-Asp-Tyr(SO 3 H)-Met-Gly-Trp-Met-Asp-Phe-NHMe], for which the “% FEEDING INHIBITION 0.5 hr (values marked *)” value under setting [1] turned out to be 13%.

Turning to `CSCC[C@H](NC(=O)[C@H](Cc1ccc(OS(=O)(=O)O)cc1)NC(=O)[C@H](N)CC(=O)O)C(=O)NCC(=O)N[C@@H](Cc1c[nH]c2ccccc12)C(=O)N[C@@H](CCSC)C(=O)N[C@@H](CC(=O)O)C(=O)N[C@@H](Cc1ccccc1)C(N)=O` [H-DAsp-Tyr(SO3 H)-Met-Gly-Trp-Met-Asp-Phe-NH2], the “% FEEDING INHIBITION 0.5 hr” value came to 99%. In addition, the “% FEEDING INHIBITION 3 hr” value (3 hr feeding period) was found to be 40%.

Regarding `CSCC[C@H](NC(=O)[C@H](Cc1c[nH]c2ccccc12)NC(=O)CNC(=O)[C@H](CCSC)NC(=O)[C@@H](N)Cc1ccc(OS(=O)(=O)O)cc1)C(=O)N[C@@H](CC(=O)O)C(=O)N[C@@H](Cc1ccccc1)C(N)=O` [H-Try(SO3 H)-Met-Gly-Trp-Met-Asp-Phe-NH2, H-Tyr(SO3 H)-Met-Gly-Trp-Met-Asp-Phe-NH2] (HELM PEPTIDE1{[N[C@@H](Cc1ccc(OS(=O)(=O)O)cc1)C(=O)[*:2]].M.G.W.M.D.F.[am]}$$$$V2.0), the “% FEEDING INHIBITION 0.5 hr” value is reported as 50%. Moreover, the “% FEEDING INHIBITION 3 hr (values marked *)” value (300 μg/kg, 3 hr feeding period, <10% inhibition at 30 μg/kg) amounted to 30%.

As to `CSCC[C@H](NC(=O)[C@H](Cc1ccc(OS(=O)(=O)O)cc1)NC(=O)C[C@H](N)C(=O)O)C(=O)NCC(=O)N[C@@H](Cc1c[nH]c2ccccc12)C(=O)N[C@@H](CCSC)C(=O)N[C@@H](CC(=O)O)C(=O)N[C@@H](Cc1ccccc1)C(N)=O` [H-βAsp-Tyr(SO3 H)-Met-Gly-Trp-Met-Asp-Phe-NH2], the “% FEEDING INHIBITION 0.5 hr” value is listed as 91%. Also, for the setting “3 hr feeding period”, the “% FEEDING INHIBITION 3 hr” value is recorded as 21%.

For `CC[C@H](C)[C@H](NC(=O)[C@H](Cc1ccc(OS(=O)(=O)O)cc1)NC(=O)CCC(=O)O)C(=O)NCC(=O)N[C@@H](Cc1c[nH]c2ccccc12)C(=O)N[C@H](C(=O)N[C@@H](CC(=O)O)C(=O)N[C@@H](Cc1ccccc1)C(N)=O)[C@@H](C)CC` [Suc-Tyr(SO3 H)-Ile-Gly-Trp-Ile-Asp-Phe-NH2] (HELM PEPTIDE1{[O=C(O)CCC(=O)[*:2]].[O=C([C@H](Cc1ccc(OS(=O)(=O)O)cc1)N[*:1])[*:2]].I.G.W.I.D.F.[am]}$$$$V2.0), the “% FEEDING INHIBITION 0.5 hr” value worked out at 73%. Besides, the “% FEEDING INHIBITION 3 hr” value (3 hr feeding period) was found to be 54%.

On to `CSCC[C@H](NC(=O)[C@H](Cc1c[nH]c2ccccc12)NC(=O)[C@@H](C)NC(=O)[C@H](CCSC)NC(=O)[C@H](Cc1ccc(OS(=O)(=O)O)cc1)NC(=O)CCC(=O)O)C(=O)N[C@@H](CC(=O)O)C(=O)N[C@@H](Cc1ccccc1)C(N)=O` [Suc-Tyr(SO3 H)-Met-DAla-Trp-Met-Asp-Phe-NH2] (HELM PEPTIDE1{[O=C(O)CCC(=O)[*:2]].[O=C([C@H](Cc1ccc(OS(=O)(=O)O)cc1)N[*:1])[*:2]].M.[dA].W.M.D.F.[am]}$$$$V2.0), for which the “% FEEDING INHIBITION 0.5 hr” value is on record as 75%. For the same molecule, the “% FEEDING INHIBITION 3 hr” value (3 hr feeding period) stood at 30%.

Take `CSCC[C@H](NC(=O)[C@H](Cc1ccc(OS(=O)(=O)O)cc1)NC(=O)CCC(=O)O)C(=O)NCC(=O)N[C@@H](Cc1c[nH]c2ccccc12)C(=O)N[C@@H](CCSC)C(=O)N[C@@H](CC(=O)O)C(=O)N[C@@H](Cc1ccccc1)C(N)=O` [Suc-Tyr(SO3 H)-Met-Gly-Trp-Met-Asp-Phe-NH2] (HELM PEPTIDE1{[O=C(O)CCC(=O)[*:2]].[O=C([C@H](Cc1ccc(OS(=O)(=O)O)cc1)N[*:1])[*:2]].M.G.W.M.D.F.[am]}$$$$V2.0): the “% FEEDING INHIBITION 0.5 hr” value is on record as 75%. For the same molecule, the “% FEEDING INHIBITION 3 hr” value (3 hr feeding period) amounted to 55%.

As for “H-Asp-Tyr(SO3 H)-Ahx-Gly-Trp-Ahx-Asp-Phe-NH2”, the “% FEEDING INHIBITION 0.5 hr” value was 82%. Also, the “% FEEDING INHIBITION 3 hr” value (3 hr feeding period) is reported as 27%.

Take “H-Asp-Tyr(SO3 H)-Met-Gly-Trp-Ahx-Asp-Phe-NH2”: the “% FEEDING INHIBITION 0.5 hr” value was determined as 82%. Further, the “% FEEDING INHIBITION 3 hr” value (3 hr feeding period) is listed as 23%.

Consider “H-Asp-Tyr(SO3 H)-Met-Gly-Trp-Met-Asp-Tyr-NH2 (H-D[sY]MGWMDY-NH2; not fully specified)”, for which the “% FEEDING INHIBITION 0.5 hr (values marked *)” value under setting [1] is reported as 23%.

As to Hpp(SO3 H)-Ahx-Gly-Trp-Ahx-Asp-Phe-NH2, the “feeding inhibition during the 0.5 hour feeding period” value is given as 20-72% and the “% FEEDING INHIBITION 0.5 hr” value turned out to be 100%. Further, where the note is “3 hr feeding period”, the “feeding inhibition during the 3 hour feeding period” value was 50-90% and the “% FEEDING INHIBITION 3 hr” value is reported as 99%.

With “Hpp(SO3 sH)-Ahx-Gly-Trp-Ahx-Asp-MePhe-NH2 [Hpp(SO3 H)-Ahx-Gly-Trp-Ahx-Asp-MePhe-NH2]”, the “feeding inhibition during the 0.5 hour feeding period” value is 20-72% and the “% FEEDING INHIBITION 0.5 hr” value was 94%. Further, under “3 hr feeding period”, the “feeding inhibition during the 3 hour feeding period” value is 50-90% and the “% FEEDING INHIBITION 3 hr” value is 96%.

“Hpp(SO3 sH)-Ile-Gly-Trp-Ahx-Asp-MePhe-NH2 [Hpp(SO3 H)-Ile-Gly-Trp-Ahx-Asp-MePhe-NH2]”: the “feeding inhibition during the 0.5 hour feeding period” value is on record as 20-72% and the “% FEEDING INHIBITION 0.5 hr” value worked out at 98%. Also, where the note is “3 hr feeding period”, the “feeding inhibition during the 3 hour feeding period” value is reported as 50-90% and the “% FEEDING INHIBITION 3 hr” value came to 100%.

In the case of “Suc-Tyr(SO3 H)-Ahx-Gly-Trp-Ahx-Asp-Phe-NH2”, the “feeding inhibition during the 0.5 hour feeding period” value is recorded as 20-72% and the “% FEEDING INHIBITION 0.5 hr” value was 100%. For the same molecule, for the setting “3 hr feeding period”, the “feeding inhibition during the 3 hour feeding period” value was 50-90% and the “% FEEDING INHIBITION 3 hr” value stood at 97%.

Regarding “Suc-Tyr(SO3 H)-Ile-Gly-Trp-Ahx-Asp-MePhe-NH2”, the “feeding inhibition during the 0.5 hour feeding period” value was 20-72% and the “% FEEDING INHIBITION 0.5 hr” value turned out to be 100%. In addition, for the setting “3 hr feeding period”, the “feeding inhibition during the 3 hour feeding period” value was 50-90% and 90%; the “% FEEDING INHIBITION 3 hr” value stood at 100%.

Turning to “Suc-Tyr(SO3 ° H)-Ahx-Gly-Trp-Ahx-Asp-MePhe-NH2”, the “feeding inhibition during the 0.5 hour feeding period” value was 20-72% and the “% FEEDING INHIBITION 0.5 hr” value is reported as 100%. Also, where the note is “3 hr feeding period”, the “feeding inhibition during the 3 hour feeding period” value is reported as 50-90% and the “% FEEDING INHIBITION 3 hr” value was 98%.

For the molecule “iBuOCO-Tyr(SO3 H)-Ahx-Gly-Trp-Ahx-Asp-MePhe-NH2”, the “feeding inhibition during the 0.5 hour feeding period” value is 20-72% and the “% FEEDING INHIBITION 0.5 hr” value is 100%. Besides, for the setting “3 hr feeding period”, the “feeding inhibition during the 3 hour feeding period” value is recorded as 50-90% and the “% FEEDING INHIBITION 3 hr” value was determined as 100%.

Take “iBuOCO-Tyr(SO3 H)-Ahx-Gly-Trp-Ahx-Asp-Phe-NH2”: the “feeding inhibition during the 0.5 hour feeding period” value is given as 20-72% and the “% FEEDING INHIBITION 0.5 hr” value was found to be 100%. In addition, for the setting “3 hr feeding period”, the “feeding inhibition during the 3 hour feeding period” value was 50-90% and the “% FEEDING INHIBITION 3 hr” value was determined as 100%.

The values above are taken from US5086042A, “Peptides with sulfate ester groups” (Fisons Corporation, priority 1989, dated 1992).
